Measurements reported in patent US20120196858A1, “METHOD OF PROMOTING APOPTOSIS AND INHIBITING METASTASIS” (Poniard Pharmaceuticals ,Inc., priority 2009, published 2012).
Read-outs that look alike come from different tables or passages of the source.

Assays:
[1] = target: T1, ACK1 (activated Cdc42-associated tyrosine kinase 1) (Homo sapiens, UniProt Q07912); experiment: Millipore KinaseProfiler selectivity screen; type: biochemical
T1 construct: purchased Millipore (KinaseProfiler service)
Experimental: (§1) Baculovirus FAK catalytic domain and in vitro kinase assays: The FAK catalytic domain region (411-686) was generated by polymerase chain reaction using the primers 5′-[…]-3′ 5′-[…]-3′, cloned into pGEX4T as a fusion with GST, and moved into the pAcG2T baculovirus expression vector (Pharmingen, Baculogold). Virus clones were identified by plaque assays and amplified. For protein expression, SF9 cells were transduced at a multiplicity of infection of 2-5 pfu/cell and cultured at 27° C. for 48 h. Glutathione agarose affinity chromatography were used to purify GST-FAK (411-686) followed by size fractionation using hiload 16/60 Superdex chromatography (GE Healthcare). Protein was concentrated and stored frozen in 50 mM Tris pH 8.0, 150 mM NaCl, 1 mM Na orthovanadate, 0.5 mM EDTA, 0.5 mM EGTA, 0.1% β-mercaptoethanol, and 20% glycerol. Purity was estimated at >90% by SDS-PAGE. GST-FAK in vitro kinase activity was measured and compared to His-tagged FAK 411-686 (Millipore) using the K-LISA screening kit (Calbiochem) and poly(Glu:Tyr) (4:1) copolymer (P0275, Sigma) as a substrate immobilized on microtiter plates. […] Serial diluted compounds at ½-Log concentrations (starting at 1 μM) were tested in triplicate. Substrate phosphorylation was measured using horseradish peroxidase-conjugated anti-pTyr antibodies (PY20, Santa Cruz Biotechnology) with spetrophotometic color quantitation. IC50 values were determined using the Hill-Slope Model. Kinase selectivity profiling was performed by using the KinaseProfiler service (Millipore).

Aurora-A = target: T2, Aurora-A (Homo sapiens, UniProt O14965); experiment: Millipore KinaseProfiler selectivity screen; type: biochemical; details: read-out: kinase inhibition
T2 construct: purchased Millipore (KinaseProfiler service)
T2 sequence (O14965 whole entry): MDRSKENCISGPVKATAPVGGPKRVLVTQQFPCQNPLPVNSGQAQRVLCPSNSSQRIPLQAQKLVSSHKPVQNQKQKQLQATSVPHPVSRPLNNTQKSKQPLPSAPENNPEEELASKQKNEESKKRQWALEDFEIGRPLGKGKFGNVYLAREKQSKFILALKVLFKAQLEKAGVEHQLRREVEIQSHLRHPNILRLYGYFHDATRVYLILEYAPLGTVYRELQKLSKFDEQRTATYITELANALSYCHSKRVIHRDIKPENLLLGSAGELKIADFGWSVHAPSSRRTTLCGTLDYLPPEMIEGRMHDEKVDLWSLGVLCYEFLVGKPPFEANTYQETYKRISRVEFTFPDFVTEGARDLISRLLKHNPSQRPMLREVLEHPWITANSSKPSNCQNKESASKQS
Experimental: as §1

[2] = target: T3, CDK2 (cyclin-dependent kinase 2)/cyclin A (Homo sapiens, UniProt P24941); experiment: Millipore KinaseProfiler selectivity screen; type: biochemical
T3 construct: purchased Millipore (KinaseProfiler service)
Experimental: as §1

FAK = target: T4, FAK (Homo sapiens, UniProt Q05397); experiment: Millipore KinaseProfiler selectivity screen; type: biochemical
T4 construct: purchased Millipore (KinaseProfiler service)
T4 sequence (Q05397 whole entry): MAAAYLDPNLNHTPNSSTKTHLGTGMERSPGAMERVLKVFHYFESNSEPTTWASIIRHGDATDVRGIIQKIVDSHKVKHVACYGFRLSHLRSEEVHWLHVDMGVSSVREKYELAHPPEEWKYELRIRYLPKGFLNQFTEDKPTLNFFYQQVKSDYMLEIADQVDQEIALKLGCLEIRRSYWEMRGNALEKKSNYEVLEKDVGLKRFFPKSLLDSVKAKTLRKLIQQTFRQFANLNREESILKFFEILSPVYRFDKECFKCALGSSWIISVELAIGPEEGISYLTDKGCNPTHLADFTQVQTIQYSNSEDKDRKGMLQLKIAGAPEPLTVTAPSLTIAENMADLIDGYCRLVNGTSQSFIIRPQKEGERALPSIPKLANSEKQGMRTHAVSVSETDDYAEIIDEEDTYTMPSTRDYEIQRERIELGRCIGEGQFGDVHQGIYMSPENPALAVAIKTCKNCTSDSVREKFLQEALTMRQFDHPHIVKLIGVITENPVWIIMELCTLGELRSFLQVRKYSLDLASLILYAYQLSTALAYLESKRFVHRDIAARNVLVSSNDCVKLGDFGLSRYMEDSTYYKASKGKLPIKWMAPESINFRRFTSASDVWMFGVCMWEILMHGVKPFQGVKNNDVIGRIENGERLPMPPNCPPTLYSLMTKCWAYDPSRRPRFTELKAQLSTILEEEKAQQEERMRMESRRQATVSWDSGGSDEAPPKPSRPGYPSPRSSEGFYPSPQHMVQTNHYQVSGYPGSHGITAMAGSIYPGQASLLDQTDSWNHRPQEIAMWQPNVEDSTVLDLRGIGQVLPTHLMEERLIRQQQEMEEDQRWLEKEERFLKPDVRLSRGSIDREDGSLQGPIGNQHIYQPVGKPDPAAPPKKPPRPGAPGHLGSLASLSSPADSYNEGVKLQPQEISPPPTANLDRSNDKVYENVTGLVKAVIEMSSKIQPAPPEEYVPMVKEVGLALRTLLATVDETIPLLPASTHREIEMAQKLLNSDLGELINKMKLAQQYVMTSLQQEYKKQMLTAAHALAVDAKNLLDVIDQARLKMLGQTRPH
Experimental: as §1

[3] = target: T5, Flt3 (FMS-like tyrosine kinase 3) (Homo sapiens, UniProt P36888); experiment: Millipore KinaseProfiler selectivity screen; type: biochemical
T5 construct: purchased Millipore (KinaseProfiler service)
T5 sequence (P36888 27-993): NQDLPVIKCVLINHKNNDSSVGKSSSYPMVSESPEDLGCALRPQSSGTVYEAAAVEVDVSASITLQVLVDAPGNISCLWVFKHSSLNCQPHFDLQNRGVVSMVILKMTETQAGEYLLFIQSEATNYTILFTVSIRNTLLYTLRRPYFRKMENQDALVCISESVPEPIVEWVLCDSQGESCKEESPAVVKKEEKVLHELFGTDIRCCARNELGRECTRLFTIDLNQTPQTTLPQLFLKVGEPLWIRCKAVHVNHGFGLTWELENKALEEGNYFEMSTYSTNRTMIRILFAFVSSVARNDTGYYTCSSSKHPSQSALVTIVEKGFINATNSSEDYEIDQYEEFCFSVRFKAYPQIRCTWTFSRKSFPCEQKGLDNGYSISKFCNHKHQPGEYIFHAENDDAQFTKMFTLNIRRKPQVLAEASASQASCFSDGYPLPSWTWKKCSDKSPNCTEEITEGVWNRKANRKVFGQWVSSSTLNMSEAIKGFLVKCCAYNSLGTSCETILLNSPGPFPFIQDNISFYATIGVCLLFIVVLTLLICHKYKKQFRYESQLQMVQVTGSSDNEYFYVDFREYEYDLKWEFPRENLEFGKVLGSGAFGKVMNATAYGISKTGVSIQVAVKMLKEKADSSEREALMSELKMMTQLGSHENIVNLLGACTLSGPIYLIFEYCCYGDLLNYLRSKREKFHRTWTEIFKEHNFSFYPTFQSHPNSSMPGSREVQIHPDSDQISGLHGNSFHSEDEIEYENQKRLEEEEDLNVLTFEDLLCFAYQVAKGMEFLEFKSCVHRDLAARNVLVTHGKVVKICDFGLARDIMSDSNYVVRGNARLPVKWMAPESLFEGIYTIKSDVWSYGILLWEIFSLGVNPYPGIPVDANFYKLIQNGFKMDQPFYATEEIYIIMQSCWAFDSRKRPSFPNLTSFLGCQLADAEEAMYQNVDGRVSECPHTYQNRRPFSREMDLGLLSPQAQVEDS
Experimental: as §1

[4] = target: T6, Lck (lymphocyte-specific protein tyrosine kinase) (Homo sapiens, UniProt P06239); experiment: Millipore KinaseProfiler selectivity screen; type: biochemical
T6 construct: purchased Millipore (KinaseProfiler service)
T6 sequence (P06239 whole entry): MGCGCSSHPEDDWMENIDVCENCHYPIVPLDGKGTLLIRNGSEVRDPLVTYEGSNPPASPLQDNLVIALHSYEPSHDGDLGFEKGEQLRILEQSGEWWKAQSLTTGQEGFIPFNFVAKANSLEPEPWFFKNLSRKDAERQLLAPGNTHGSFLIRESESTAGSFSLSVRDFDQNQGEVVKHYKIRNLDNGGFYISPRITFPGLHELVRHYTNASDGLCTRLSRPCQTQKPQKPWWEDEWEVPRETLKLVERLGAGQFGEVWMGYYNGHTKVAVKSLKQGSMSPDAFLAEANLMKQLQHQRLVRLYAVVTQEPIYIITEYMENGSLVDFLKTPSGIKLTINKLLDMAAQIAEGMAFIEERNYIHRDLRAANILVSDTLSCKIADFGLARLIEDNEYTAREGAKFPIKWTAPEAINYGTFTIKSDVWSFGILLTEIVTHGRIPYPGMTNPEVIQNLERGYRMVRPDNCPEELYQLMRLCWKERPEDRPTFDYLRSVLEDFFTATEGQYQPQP
Experimental: as §1

insulin receptor (IR) = target: T7, insulin receptor (IR) (Homo sapiens, UniProt P06213); experiment: Millipore KinaseProfiler selectivity screen; type: biochemical; details: read-out: kinase inhibition
T7 construct: purchased Millipore (KinaseProfiler service)
Experimental: as §1

4T1 cells [5] = experiment: Cell adhesion to fibronectin; type: cell-based, murine
4T1 cells [6] = experiment: Cell cycle analysis by propidium iodide staining and flow cytometry; type: cell-based, murine; details: 1.0 μM
Experimental: Cell pellets were resuspended in 300 p. 1 of PBS containing propidium iodide (PI) (10 μg/ml), DNAse-free RNAse (100 μg/ml, Qiagen), and then incubated at 37° C. with agitation for 1 h. Samples were analyzed by flow cytometry (FACSCalibur, Becton-Dickinson) and cell cycle analyses were performed by ModFit LT3.2 software (Verity software house). Hypodiploid DNA content as a measure of cell apoptosis was detected by PI staining as described ^29. […] Quadrant gates were positioned based on cell autofluorescence (negative) staurosporine-treated (positive) controls. Apoptosis was calculated to be the percent of annexin V-positive cells. In the soft agar assays, apoptosis was quantified by visual inspection of at least 200 cells and was defined as the appearance of membrane blebbing or cell shrinkage. Apoptosis was also detected by appearance of cleaved caspase-3 antibody reactivity in protein lysates by immunoblotting.

[7] = test system: ID8 ovarian carcinoma cells; experiment: Intraperitoneal ID8 ovarian carcinoma tumor growth in C57Bl6 mice; type: in vivo, C57B16 mice
Experimental: Mouse tumor studies: Six to eight week old female C57B16 and BALB/c mice were obtained from Harlan Laboratories (Indianapolis, Ind.) and housed in pathogen-free conditions, according to the guidelines of the Association for the Assessment and Accreditation for Laboratory Animal Care, International. All in vivo studies were carried out under an approved institutional experimental animal care and use protocol. Growing tumor cells were harvested by limited trypsinization, washed in PBS, and counted using a ViCell XR (Beckman) prior to injection. Cell viability as measured by trypan blue exclusion was >95%. For subcutaneous tumor growth, 1×10^6 mCherry-labeled 4T1 cells in 100 μl PBS were injected into the hindflank of Balb/C mice. […] Control animals received PEG400:PBS injections and at 13 days, tumors were imaged in situ using an Olympus OV100 Intravital Fluorescence Molecular Imaging System, tumors were excised and weighed, half was frozen in OCT, and half was solubilized in protein lysis buffer for FAK phosphorylation analyses. For ID8 ovarian carcinoma tumor growth, 0.8 mL of 1×10^7 ID8 cells in PBS was intraperitoneal injected into C57B16 mice. […] Administration continued ad libitum for 30 days after which mice were euthanized, ascites fluid collected, cells obtained by centrifugation (2000 rpm for 5 min), cell volume measured by pipet, and then solubilized in protein lysis buffer for immunoblotting analyses.

[8] = Pharmacodynamic (PD) evaluation in subcutaneous 4T1 tumors, single i.p. injection; type: in vivo, Balb/c mice; details: Balb/c, mouse, intraperitoneal, 100 mg/kg i.p., 12 h
[9] = test system: FAK and p130Cas phosphorylation in 4T1 tumors; experiment: as above; type: in vivo, Balb/c mice; details: for maximal plasma levels: single injection
Solubility in water = type: physicochemical; details: HCl salt
Source text: 10, 2008, and published as WO 2008/115369.

[10] = 0.5 mg/ml ad libitum, 30 treatment days

T1 sequence (Q07912 whole entry): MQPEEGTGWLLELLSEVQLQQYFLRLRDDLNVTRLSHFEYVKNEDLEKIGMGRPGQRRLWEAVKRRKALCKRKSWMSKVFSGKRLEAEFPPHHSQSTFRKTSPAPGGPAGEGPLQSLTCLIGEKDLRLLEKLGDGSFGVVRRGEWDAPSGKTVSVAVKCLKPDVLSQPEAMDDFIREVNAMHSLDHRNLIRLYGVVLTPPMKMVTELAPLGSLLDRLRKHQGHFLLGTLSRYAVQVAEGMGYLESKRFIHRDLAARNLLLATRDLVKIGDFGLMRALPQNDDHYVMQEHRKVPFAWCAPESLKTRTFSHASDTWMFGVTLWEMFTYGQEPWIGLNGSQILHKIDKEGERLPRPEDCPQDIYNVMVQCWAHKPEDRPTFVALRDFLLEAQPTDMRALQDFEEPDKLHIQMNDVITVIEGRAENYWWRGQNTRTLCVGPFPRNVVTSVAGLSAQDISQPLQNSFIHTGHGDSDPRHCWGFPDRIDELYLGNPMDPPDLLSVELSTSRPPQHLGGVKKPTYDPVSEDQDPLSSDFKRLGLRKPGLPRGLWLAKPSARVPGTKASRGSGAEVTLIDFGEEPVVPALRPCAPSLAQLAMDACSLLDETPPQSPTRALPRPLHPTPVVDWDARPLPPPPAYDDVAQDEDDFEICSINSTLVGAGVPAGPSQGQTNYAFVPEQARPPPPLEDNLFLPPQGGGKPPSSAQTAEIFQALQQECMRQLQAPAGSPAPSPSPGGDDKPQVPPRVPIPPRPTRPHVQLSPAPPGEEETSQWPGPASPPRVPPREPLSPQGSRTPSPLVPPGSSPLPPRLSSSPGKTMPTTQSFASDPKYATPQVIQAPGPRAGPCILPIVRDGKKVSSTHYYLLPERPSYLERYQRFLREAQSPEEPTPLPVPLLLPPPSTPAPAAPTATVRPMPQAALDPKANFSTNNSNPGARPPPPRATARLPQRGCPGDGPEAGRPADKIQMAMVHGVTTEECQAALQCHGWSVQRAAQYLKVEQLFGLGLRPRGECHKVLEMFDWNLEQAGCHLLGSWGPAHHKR

## CNC(=O)c1ccccc1Nc1cc(Nc2ccc(N3CCOCC3)cc2OC)ncc1C(F)(F)F [PND-1186]
[1]
  inhibition at 1 µM: > 50%
Aurora-A
  inhibition at 1 µM: > 50%
[2]
  inhibition at 1 µM: > 50%
FAK; 0.1 μM PND-1186
  kinase inhibition specificity: displayed specificity for FAK as well as Flt3
FAK; 1 μM PND-1186
  remaining kinase activity: negligible activity
[3]; 0.1 μM PND-1186
  kinase inhibition specificity: displayed specificity for FAK as well as Flt3
[3]; 1 μM PND-1186
  remaining kinase activity: negligible activity
[4]
  inhibition at 1 µM: > 50%
Insulin receptor (IR)
  inhibition at 1 µM: > 50%
4T1 cells [5]
  effect on 4T1 cell adhesion to fibronectin: did not affect 4T1 cell adhesion to fibronectin
4T1 cells [6]
  cell cycle distribution, suspended cells: did not reveal cell cycle differences
4T1 cells [6]; 72 h, vs DMSO
  cell cycle distribution, adherent cells: slight accumulation in the S and G2/M phases
4T1 cells [6]; PI staining
  sub-diploid (1N) cells, suspended cells: accumulation of sub-diploid (1N) cells
[7]; 0.5 mg/ml ad libitum vs 5% sucrose
  inhibition of FAK pY397 in ascites cells: > 2 fold
[7]; [10]
  ascites-associated cells: lower number of ascites-associated cells
  swollen abdomens: did not exhibit swollen abdomens
[7]; 0.5 mg/ml ad libitum, dsRed imaging
  tumor nodules within the peritoneal space: significantly fewer tumor nodules
[7]; 0.5 mg/ml in 5% sucrose ad libitum
  adverse effects and body weight: No adverse effects and no body weight loss
[7]; 0.5 mg/ml in drinking water of mice, tumor model not named at the place
  tumor burden, caspase 3 cleavage, tumor TUNEL staining: decreased tumor burden, increased caspase 3 cleavage, and elevated tumor TUNEL staining
[8]; plasma, read-out: average concentration in plasma at 12 h
  concentration at 12 h: 15.1 µM
[8]; tumor, read-out: average concentration in tumors at 12 h
  concentration at 12 h: 10400 ng/g
[9]; 30 mg/kg i.p.
  duration of tumor FAK pY397 inhibition: 3 to 6 h
  maximal PND-1186 in tumors: 0.75 µg/g
  time to maximal PND-1186 in tumors: ≤ 1 h
  time to maximal plasma levels: ≤ 15 min
  maximal plasma levels: 35 µM
[9]; 30 mg/kg i.p., 12 h
  plasma levels at 12 h: 0.1 µM
  tumor FAK pY397 phosphorylation at 12 h: not significantly inhibited
  tumor PND-1186 levels by 12 h: 0.04 µg/g
[9]; 100 mg/kg i.p.
  time to maximal PND-1186 in tumors: ≤ 1 h
  time to maximal plasma levels: ≤ 30 min
  maximal plasma levels: 117 µM
[9]; 100 mg/kg i.p., 12 h
  plasma levels at 12 h: 1.1 µM
[9]; 100 mg/kg i.p., by 3 h
  p130Cas Tyr-410 phosphorylation (pY410Cas) in tumors: significantly reduced p130Cas Tyr-410 phosphorylation
[9]; 100 mg/kg i.p., for 12 h
  sustained inhibition of tumor FAK Tyr-397 phosphorylation: > 60%
[9]; 100 mg/kg i.p., maintained up to 12 h
  maximal PND-1186 in tumors: 16.1 µg/g
Solubility in water
  solubility: 22 mg/mL
